Measured values as given in PubChem BioAssay (NCI).
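Compound exposure: 48 hours, 5 concentrations, 96-well plates. The concentration for 50% growth inhibition is given as GI50. The concentration for full growth arrest is given as TGI.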

Tests used:
Test in all cases: DTP human tumour cell line panel, 48 h
SNB-75 CNS = system: SNB-75 CNS
PC-3 prostate = system: PC-3 prostate
OVCAR-8 ovarian = system: OVCAR-8 ovarian
OVCAR-5 ovarian = system: OVCAR-5 ovarian
K-562 leukemia = system: K-562 leukemia
HOP-92 NSCLC = system: HOP-92 NSCLC
HCT-15 colon = system: HCT-15 colon
ACHN renal = system: ACHN renal

## Cc1c(O)c2ccccc2oc1=O
SNB-75 CNS
  TGI: > 100 µM
PC-3 prostate
  TGI: > 100 µM
OVCAR-8 ovarian
  TGI: > 100 µM
OVCAR-5 ovarian
  TGI: > 100 µM
K-562 leukemia
  TGI: > 100 µM
HOP-92 NSCLC
  TGI: > 100 µM
HCT-15 colon
  TGI: > 100 µM
ACHN renal
  TGI: > 100 µM

## Nc1c(C(=O)c2ccc(-c3cccnc3)cc2)cnn1-c1ccc(F)cc1
SNB-75 CNS
  GI50: 11.3 µM
  TGI: > 25 µM
PC-3 prostate
  GI50: > 25 µM
  TGI: > 25 µM
OVCAR-8 ovarian
  GI50: > 17.5 µM
  TGI: > 25 µM
OVCAR-5 ovarian
  GI50: > 25 µM
  TGI: > 25 µM
K-562 leukemia
  GI50: > 25 µM
  TGI: > 25 µM
HOP-92 NSCLC
  GI50: > 25 µM
  TGI: > 25 µM
HCT-15 colon
  GI50: > 20.2 µM
  TGI: > 25 µM
ACHN renal
  GI50: > 10.9 µM
  TGI: > 16 µM

## O=C(c1ccco1)c1nc2cc(C(F)(F)F)ccc2nc1C(F)(F)F
SNB-75 CNS
  GI50: 18.9 µM
  TGI: 62.7 µM
PC-3 prostate
  GI50: > 100 µM
  TGI: > 100 µM
OVCAR-8 ovarian
  GI50: > 100 µM
  TGI: > 100 µM
OVCAR-5 ovarian
  GI50: > 100 µM
  TGI: > 100 µM
K-562 leukemia
  GI50: > 100 µM
  TGI: > 100 µM
HOP-92 NSCLC
  GI50: 27.2 µM
  TGI: > 100 µM
HCT-15 colon
  GI50: > 100 µM
  TGI: > 100 µM
ACHN renal
  GI50: > 100 µM
  TGI: > 100 µM

## CCOC(=O)c1ccc(Nc2sc(C(=O)c3ccc(Br)cc3)c(N)c2C#N)cc1
SNB-75 CNS
  GI50: 0.496 µM
  TGI: 7.61 µM
PC-3 prostate
  GI50: 0.797 µM
  TGI: > 100 µM
OVCAR-8 ovarian
  GI50: 6.91 µM
  TGI: > 100 µM
OVCAR-5 ovarian
  GI50: 5.66 µM
  TGI: > 100 µM
K-562 leukemia
  GI50: 0.513 µM
  TGI: > 100 µM
HOP-92 NSCLC
  GI50: 0.884 µM
  TGI: > 100 µM
HCT-15 colon
  GI50: 0.662 µM
  TGI: > 100 µM
ACHN renal
  GI50: 3.24 µM
  TGI: > 100 µM

## CN1CCC(COc2cnc(-c3cccc(Cn4nc(-c5cccc(C#N)c5)ccc4=O)c3)nc2)CC1
SNB-75 CNS
  GI50: 1.81 µM
  TGI: 5.28 µM
PC-3 prostate
  GI50: 6.7 µM
  TGI: 31.8 µM
OVCAR-8 ovarian
  GI50: 3.27 µM
  TGI: 12.8 µM
OVCAR-5 ovarian
  GI50: 7.69 µM
  TGI: 27.5 µM
K-562 leukemia
  GI50: 1.74 µM
  TGI: 4.32 µM
HOP-92 NSCLC
  GI50: 1.02 µM
  TGI: 12.6 µM
HCT-15 colon
  GI50: 3.47 µM
  TGI: 15.5 µM
ACHN renal
  GI50: 2.38 µM
  TGI: 5.78 µM

## OC(c1cc(-c2cccc(Cl)c2)nc2ccccc12)C1CCCCN1 (centres undefined)
SNB-75 CNS
  GI50: 1.38 µM
  TGI: 3.23 µM
PC-3 prostate
  GI50: 1.4 µM
  TGI: 2.84 µM
OVCAR-8 ovarian
  GI50: 1.79 µM
  TGI: 3.42 µM
OVCAR-5 ovarian
  GI50: 1.62 µM
  TGI: 3.29 µM
K-562 leukemia
  GI50: 1.39 µM
  TGI: 4.46 µM
HOP-92 NSCLC
  GI50: 1.12 µM
  TGI: 2.51 µM
HCT-15 colon
  GI50: 1.91 µM
  TGI: 3.91 µM
ACHN renal
  GI50: 1.64 µM
  TGI: 3.13 µM

## C=C(C)[C@@H]1CC[C@]2(COCCC#N)CC[C@]3(C)[C@H](CC[C@@H]4[C@@](C)(CCCNCCC#N)[C@H](C(=C)C)CC[C@]43C)[C@@H]12
SNB-75 CNS
  GI50: > 50 µM
  TGI: > 50 µM
PC-3 prostate
  GI50: 10.3 µM
  TGI: > 50 µM
OVCAR-8 ovarian
  GI50: 12.1 µM
  TGI: 31.8 µM
OVCAR-5 ovarian
  GI50: 13.4 µM
  TGI: 44.1 µM
K-562 leukemia
  GI50: 8.94 µM
  TGI: 31.6 µM
HOP-92 NSCLC
  GI50: 7.03 µM
  TGI: 28.5 µM
HCT-15 colon
  GI50: 7.66 µM
  TGI: 16.6 µM
ACHN renal
  GI50: 13.2 µM
  TGI: > 50 µM

## O=C1/C(=C\c2ccc(F)cc2)CN(C(=O)c2ccccc2)C/C1=C\c1ccc(F)cc1
SNB-75 CNS
  GI50: 3.57 µM
  TGI: 42.6 µM
PC-3 prostate
  GI50: 2.08 µM
  TGI: 6.59 µM
OVCAR-8 ovarian
  GI50: 2.82 µM
  TGI: 17.5 µM
OVCAR-5 ovarian
  GI50: 2.64 µM
  TGI: 11.7 µM
K-562 leukemia
  GI50: 0.983 µM
  TGI: > 100 µM
HOP-92 NSCLC
  GI50: 1.48 µM
  TGI: 9.1 µM
HCT-15 colon
  GI50: 1.5 µM
  TGI: 3.53 µM
ACHN renal
  GI50: 1.75 µM
  TGI: 3.77 µM

## O=C1CC[C@H](N2C(=O)c3cccc4c(Cc5ccc(CN6CCOCC6)cc5)ccc2c34)C(=O)N1
SNB-75 CNS
  GI50: 2.56 µM
  TGI: > 100 µM
PC-3 prostate
  GI50: 40.4 µM
  TGI: > 100 µM
OVCAR-8 ovarian
  GI50: 56.6 µM
  TGI: > 100 µM
OVCAR-5 ovarian
  GI50: > 100 µM
  TGI: > 100 µM
K-562 leukemia
  GI50: 10.2 µM
  TGI: > 100 µM
HOP-92 NSCLC
  GI50: 8.14 µM
  TGI: > 100 µM
HCT-15 colon
  GI50: 41.8 µM
  TGI: > 100 µM
ACHN renal
  GI50: 78.6 µM
  TGI: > 100 µM

## Cc1cccc(-c2[nH]ncc2-c2ccc3ncccc3n2)n1
SNB-75 CNS
  GI50: 5.74 µM
  TGI: > 23.9 µM
PC-3 prostate
  GI50: > 17.3 µM
  TGI: > 25 µM
OVCAR-8 ovarian
  GI50: 8.54 µM
  TGI: > 25 µM
OVCAR-5 ovarian
  GI50: 9.82 µM
  TGI: > 25 µM
K-562 leukemia
  GI50: > 25 µM
  TGI: > 25 µM
HOP-92 NSCLC
  GI50: 10 µM
  TGI: > 25 µM
HCT-15 colon
  GI50: 9.98 µM
  TGI: > 25 µM
ACHN renal
  GI50: 7.1 µM
  TGI: > 25 µM

## Cc1ccc(NC(=O)c2ccc(CN3CCN(C)CC3)cc2)cc1Nc1nccc(-c2cccnc2)n1
SNB-75 CNS
  GI50: 18.7 µM
  TGI: 34.2 µM
PC-3 prostate
  GI50: 21.5 µM
  TGI: 71.6 µM
OVCAR-8 ovarian
  GI50: 27 µM
  TGI: > 89.9 µM
OVCAR-5 ovarian
  GI50: 2.08 µM
  TGI: 39.5 µM
K-562 leukemia
  GI50: 0.0414 µM
  TGI: 3.72 µM
HOP-92 NSCLC
  GI50: 12.6 µM
  TGI: 37.3 µM
HCT-15 colon
  GI50: 16.2 µM
  TGI: 80.5 µM
ACHN renal
  GI50: 24.1 µM
  TGI: 72.9 µM

## CC[C@H](NC(=O)[C@H]1CCCCN1C)C(=O)N(C)[C@H](C[C@@H](OC(C)=O)c1nc(C(=O)N[C@@H](Cc2ccccc2)C[C@H](C)C(=O)O)cs1)C(C)C
SNB-75 CNS
  GI50: 0.00528 µM
  TGI: > 14.3 µM
PC-3 prostate
  GI50: 0.00472 µM
  TGI: > 14.3 µM
OVCAR-8 ovarian
  GI50: 0.0166 µM
  TGI: > 14.3 µM
OVCAR-5 ovarian
  GI50: 0.0288 µM
  TGI: > 14.3 µM
K-562 leukemia
  GI50: 0.00209 µM
  TGI: > 14.3 µM
HOP-92 NSCLC
  GI50: 0.00585 µM
  TGI: > 6.56 µM
HCT-15 colon
  GI50: 0.00933 µM
  TGI: > 14.3 µM
ACHN renal
  GI50: 0.0142 µM
  TGI: > 14.3 µM

## C=C(C)C1CC/C(C)=C/CCC2(C)OC2CC/C(CO)=C\C1O (centres undefined)
SNB-75 CNS
  TGI: > 100 µM
PC-3 prostate
  TGI: > 100 µM
OVCAR-8 ovarian
  TGI: > 100 µM
OVCAR-5 ovarian
  TGI: > 100 µM
K-562 leukemia
  TGI: > 100 µM
HOP-92 NSCLC
  TGI: > 100 µM
HCT-15 colon
  TGI: > 100 µM
ACHN renal
  TGI: > 100 µM

## NS(=O)(=O)OCC1OC(n2cnc3cncnc32)C(O)C1O (centres undefined)
SNB-75 CNS
  GI50: 0.0309 µM
  TGI: 0.4 µM
PC-3 prostate
  GI50: 0.0312 µM
  TGI: 0.237 µM
OVCAR-8 ovarian
  GI50: < 0.01 µM
  TGI: 0.0466 µM
OVCAR-5 ovarian
  GI50: < 0.0114 µM
  TGI: 0.0747 µM
K-562 leukemia
  GI50: 0.0333 µM
  TGI: 1.22 µM
HOP-92 NSCLC
  GI50: 0.0183 µM
  TGI: 0.0619 µM
HCT-15 colon
  GI50: 0.0283 µM
  TGI: 0.105 µM
ACHN renal
  GI50: 0.0288 µM
  TGI: 0.0945 µM

## C=CCC(N[C@@H](CO)c1ccccc1)c1cn(Cc2ccccc2Cl)c(=O)n(Cc2ccccc2Cl)c1=O (some centres undefined)
SNB-75 CNS
  GI50: 79.3 µM
  TGI: > 100 µM
PC-3 prostate
  GI50: 83.9 µM
  TGI: > 100 µM
OVCAR-8 ovarian
  GI50: > 100 µM
  TGI: > 100 µM
OVCAR-5 ovarian
  GI50: > 100 µM
  TGI: > 100 µM
K-562 leukemia
  GI50: > 100 µM
  TGI: > 100 µM
HOP-92 NSCLC
  GI50: > 100 µM
  TGI: > 100 µM
HCT-15 colon
  GI50: > 100 µM
  TGI: > 100 µM
ACHN renal
  GI50: > 100 µM
  TGI: > 100 µM
